Laboratory results reported in patent US6962931B2, “Self-emulsifying formulations of cholesteryl ester transfer protein inhibitors” (Pfizer Inc., priority 2001, dated 2005).

Assay: Equilibrium solubility in excipients, vehicles and emulsion preconcentrates
Type: physicochemical
Details: equilibrium
Procedure: The solubility of CETP inhibitors in excipients and in formulations was determined by adding an excess of compound to the medium in question. The mixture was agitated by rotation over a period of days at ambient temperature until the concentration in solution had reached an equilibrium as judged by similar measurements for consecutive time points. Concentrations were measured by filtration of aliquots with a PTFE syringe filter and assay by HPLC as described in Example 11.
The solubility of crystalline CETP inhibitors in representative vehicles was determined by adding an excess of compound to the vehicle in question. The mixture was agitated by rotation over a period of days at ambient temperature until the concentration in solution had reached equilibrium as judged by similar measurements for consecutive time points. Concentrations were measured by filtration of aliquots with a PTFE syringe filter and assayed by HPLC.
The concentrations of CETP inhibitor in each vehicle were assayed at intervals by dilution of aliquots into acetonitrile and gradient HPLC analysis on a Water Symmetry C-8 column (3.9×150 mm, 5 micron) at 30° C. at a flow rate of 1 mL/min. […] The detection method was UV absorbance at 210 nm.

CCOC(=O)N1c2ccc(C(F)(F)F)cc2[C@@H](N(Cc2cc(C(F)(F)F)cc(C(F)(F)F)c2)C(=O)OC)C[C@H]1CC [Compound A, [2R,4S] 4-[(3,5-bis-trifluoromethyl-benzyl)-methoxycarbonyl-amino]-2-ethyl-6-trifluoromethyl-3,4-dihydro-2H-quinoline-1-carboxylic acid ethyl ester]
Solubility (ambient temperature, vehicle Water): <0.00004 mgA/ml
Solubility (Miglyol 812/EtOH/Cremophor EL (76/4/20)): 89 mgA/ml
Solubility (Miglyol 812/Ethyl lactate/Cremophor EL 30/50/20): 256 mgA/ml
Solubility (Miglyol 812/Ethyl lactate/Cremophor EL 40/40/20): 221 mgA/ml
Solubility (Miglyol 812/Ethyl lactate/Cremophor EL 50/30/20): 196 mgA/ml
Solubility (Miglyol 812/Ethyl lactate/Cremophor EL 60/20/20): 143 mgA/ml
Solubility (Miglyol 812/Ethyl lactate/Cremophor EL 65/15/20): 120 mgA/ml
Solubility (Miglyol 812/Ethyl lactate/Cremophor EL 70/10/20): 99 mgA/ml
Solubility (Miglyol 812/Ethyl lactate/Cremophor EL 72/8/20): 94 mgA/ml
Solubility (Miglyol 812/Ethyl lactate/Labrasol (72/8/20)): 98 mgA/ml
Solubility (Miglyol 812/Ethyl lactate/Tagat TO (72/8/20)): 87 mgA/ml
Solubility (Miglyol 812/Peppermint Oil/Cremophor EL (72/8/20)): 72 mgA/ml
Solubility (Miglyol 812/Propylene carbonate/Cremophor EL 30/50/20): 228 mgA/ml
Solubility (Miglyol 812/Propylene carbonate/Cremophor EL 40/40/20): 209 mgA/ml
Solubility (Miglyol 812/Propylene carbonate/Cremophor EL 55/25/20): 158 mgA/ml
Solubility (Miglyol 812/Propylene carbonate/Cremophor EL 72/8/20): 108 mgA/ml
Solubility (Miglyol 812/Propylene carbonate/Labrasol (72/8/20)): 116 mgA/ml
Solubility (Miglyol 812/Propylene carbonate/Tagat TO (72/8/20)): 111 mgA/ml
Solubility (Miglyol 812/Triacetin/Cremophor EL 30/50/20): 198 mgA/ml
Solubility (Miglyol 812/Triacetin/Cremophor EL 40/40/20): 183 mgA/ml
Solubility (Miglyol 812/Triacetin/Cremophor EL 50/30/20): 158 mgA/ml
Solubility (Miglyol 812/Triacetin/Cremophor EL 60/20/20): 133 mgA/ml
Solubility (Miglyol 812/Triacetin/Cremophor EL 65/15/20): 111 mgA/ml
Solubility (Miglyol 812/Triacetin/Cremophor EL 72/8/20): 94 mgA/ml
Solubility (vehicle Capmul MCM): 41 mgA/ml
Solubility (vehicle Cremophor EL): 20 mgA/ml
Solubility (vehicle Dimethylisosorbide): 439 mgA/ml
Solubility (vehicle Ethyl lactate): 400 mgA/ml
Solubility (vehicle Glycofurol): 99 mgA/ml
Solubility (vehicle Labrafil M 1944): 26 mgA/ml
Solubility (vehicle Labrafil M 2125): 27 mgA/ml
Solubility (vehicle Labrasol): 41 mgA/ml
Solubility (vehicle Lauroglycol FCC): 70 mgA/ml
Solubility (vehicle Maisine 35-1): 9 mgA/ml
Solubility (vehicle Miglyol 812): 65 mgA/ml
Solubility (vehicle Miglyol 812/Capmul MCM (80/20)): 74 mgA/ml
Solubility (vehicle Miglyol 812/Capmul MCM/Polysorbate 80 (20/60/20)): 63 mgA/ml
Solubility (vehicle Miglyol 812/Capmul MCM/Polysorbate 80 (40/40/20)): 58 mgA/ml
Solubility (vehicle Miglyol 812/Cremophor EL 80/20): 68 mgA/ml
Solubility (vehicle Miglyol 812/Labrafil M 1944 (80/20)): 59 mgA/ml
Solubility (vehicle Miglyol 812/Labrafil M 2125 (80/20)): 57 mgA/ml
Solubility (vehicle Miglyol 812/Labrasol (80/20)): 69 mgA/ml
Solubility (vehicle Miglyol 812/Peppermint oil (80/20)): 93 mgA/ml
Solubility (vehicle Miglyol 812/Peppermint oil (90/10)): 79 mgA/ml
Solubility (vehicle Miglyol 812/Tagat TO (80/20)): 58 mgA/ml
Solubility (vehicle Miglyol 812/propylene carbonate/Cremophor EL (60/20/20)): 146 mgA/ml
Solubility (vehicle Miglyol 812/triacetin (90/10), not completely miscible): 106 mgA/ml
Solubility (vehicle N-methyl-2-pyrrolidone): 813 mgA/ml
Solubility (vehicle Oleic acid): 8.5 mgA/ml
Solubility (vehicle Olive oil): 17 mgA/ml
Solubility (vehicle Olive oil/Capmul MCM (80/20)): 23 mgA/ml
Solubility (vehicle Olive oil/Peppermint oil (90/10)): 25 mgA/ml
Solubility (vehicle Peceol): 10 mgA/ml
Solubility (vehicle Plurol Oleique CC 497): 17 mgA/ml
Solubility (vehicle Pluronic L-44): 36 mgA/ml
Solubility (vehicle Polysorbate 80 (Tween 80)): 23 mgA/ml
Solubility (vehicle Propylene carbonate): 227 mgA/ml
Solubility (vehicle Tagat TO (Polyoxyethylene glycerol trioleate)): 32 mgA/ml
Solubility (vehicle Transcutol P): 174 mgA/ml
Solubility (vehicle Triacetin): 235 mgA/ml
Solubility (vehicle Triethyl citrate): 240 mgA/ml
Solubility (vehicle peppermint oil): 266 mgA/ml
